Data as given in PubChem BioAssay AID1259407 (Chemical Carcinogenesis Research Information System (CCRIS), 2018).
Calls of active or inactive are those of the source. No rule for the calls is given here.

Test system: CCRIS mutagenicity, Ames/micronucleus/aberration tests
Experiment: CCRIS mutagenicity studies
[1] = Test System: AMES SALMONELLA TYPHIMURIUM, Strain/Indicator: TA97, Metabolic Activation: NONE, Method: PREINCUBATION
[2] = Test System: AMES SALMONELLA TYPHIMURIUM, Strain/Indicator: TA102, Metabolic Activation: NONE, Method: PREINCUBATION
[3] = Test System: AMES SALMONELLA TYPHIMURIUM, Strain/Indicator: TA100, Metabolic Activation: NONE, Method: PREINCUBATION
[4] = Test System: AMES SALMONELLA TYPHIMURIUM, Strain/Indicator: TA1535, Metabolic Activation: NONE, Method: PREINCUBATION
[5] = Test System: AMES SALMONELLA TYPHIMURIUM, Strain/Indicator: TA1537, Metabolic Activation: NONE, Method: PREINCUBATION

O=P(O)(O)OC(CO)CO
mutagenic call [1]: inactive; negative | mutagenic call (Test System: AMES SALMONELLA TYPHIMURIUM, Strain/Indicator: TA97, Metabolic Activation: RAT, LIVER, S-9, AROCLOR 1254, Method: PREINCUBATION): inactive; negative | mutagenic call [2]: inactive; negative | mutagenic call (Test System: AMES SALMONELLA TYPHIMURIUM, Strain/Indicator: TA102, Metabolic Activation: RAT, LIVER, S-9, AROCLOR 1254, Method: PREINCUBATION): inactive; negative

CN(C)c1ccc(NS(=O)(=O)c2cccc3cccnc23)cc1
mutagenic call (Test System: AMES SALMONELLA TYPHIMURIUM, Strain/Indicator: TA98, Metabolic Activation: NONE, Method: STANDARD PLATE): inactive; negative | mutagenic call (Test System: AMES SALMONELLA TYPHIMURIUM, Strain/Indicator: TA98, Metabolic Activation: RAT, LIVER, S-9, AROCLOR 1254, Method: STANDARD PLATE): active; positive | mutagenic call (Test System: AMES SALMONELLA TYPHIMURIUM, Strain/Indicator: TA100, Metabolic Activation: NONE, Method: STANDARD PLATE): inactive; negative | mutagenic call (Test System: AMES SALMONELLA TYPHIMURIUM, Strain/Indicator: TA100, Metabolic Activation: RAT, LIVER, S-9, AROCLOR 1254, Method: STANDARD PLATE): active; positive | mutagenic call (Test System: AMES SALMONELLA TYPHIMURIUM, Strain/Indicator: TA1535, Metabolic Activation: NONE, Method: STANDARD PLATE): inactive; negative | mutagenic call (Test System: AMES SALMONELLA TYPHIMURIUM, Strain/Indicator: TA1535, Metabolic Activation: RAT, LIVER, S-9, AROCLOR 1254, Method: STANDARD PLATE): inactive; negative | mutagenic call (Test System: AMES SALMONELLA TYPHIMURIUM, Strain/Indicator: TA1537, Metabolic Activation: NONE, Method: STANDARD PLATE): inactive; negative | mutagenic call (Test System: AMES SALMONELLA TYPHIMURIUM, Strain/Indicator: TA1537, Metabolic Activation: RAT, LIVER, S-9, AROCLOR 1254, Method: STANDARD PLATE): inactive; negative

Cc1ccccc1S(N)(=O)=O
mutagenic call (Test System: AMES SALMONELLA TYPHIMURIUM, Strain/Indicator: TA98, Metabolic Activation: NONE, Method: PREINCUBATION): inactive; negative | mutagenic call (Test System: AMES SALMONELLA TYPHIMURIUM, Strain/Indicator: TA98, Metabolic Activation: RAT LIVER S-9, PHENOBARBITAL AND BETA-NAPHTHOFLAVONE, Method: PREINCUBATION): inactive; negative | mutagenic call [3]: inactive; negative | mutagenic call (Test System: AMES SALMONELLA TYPHIMURIUM, Strain/Indicator: TA100, Metabolic Activation: RAT LIVER S-9, PHENOBARBITAL AND BETA-NAPHTHOFLAVONE, Method: PREINCUBATION): inactive; negative | mutagenic call [4]: inactive; negative | mutagenic call (Test System: AMES SALMONELLA TYPHIMURIUM, Strain/Indicator: TA1535, Metabolic Activation: RAT LIVER S-9, PHENOBARBITAL AND BETA-NAPHTHOFLAVONE, Method: PREINCUBATION): inactive; negative | mutagenic call [5]: inactive; negative | mutagenic call (Test System: AMES SALMONELLA TYPHIMURIUM, Strain/Indicator: TA1537, Metabolic Activation: RAT LIVER S-9, PHENOBARBITAL AND BETA-NAPHTHOFLAVONE, Method: PREINCUBATION): inactive; negative | mutagenic call (Test System: AMES SALMONELLA TYPHIMURIUM, Strain/Indicator: TA1538, Metabolic Activation: NONE, Method: PREINCUBATION): inactive; negative | mutagenic call (Test System: AMES SALMONELLA TYPHIMURIUM, Strain/Indicator: TA1538, Metabolic Activation: RAT LIVER S-9, PHENOBARBITAL AND BETA-NAPHTHOFLAVONE, Method: PREINCUBATION): inactive; negative | mutagenic call (Test System: E.COLI, Strain/Indicator: WP2UVRA/PKM101, Metabolic Activation: NONE, Method: PREINCUBATION): inactive; negative | mutagenic call (Test System: E.COLI, Strain/Indicator: WP2UVRA/PKM101, Metabolic Activation: RAT LIVER S-9, PHENOBARBITAL AND BETA-NAPHTHOFLAVONE, Method: PREINCUBATION): inactive; negative | mutagenic call (Test System: E.COLI, Strain/Indicator: WP2UVRA, Metabolic Activation: NONE, Method: PREINCUBATION): inactive; negative | mutagenic call (Test System: E.COLI, Strain/Indicator: WP2UVRA, Metabolic Activation: RAT LIVER S-9, PHENOBARBITAL AND BETA-NAPHTHOFLAVONE, Method: PREINCUBATION): inactive; negative

O=C(O)Cc1ccc(O)c(O)c1
mutagenic call (Test System: AMES SALMONELLA TYPHIMURIUM, Strain/Indicator: TA92, Metabolic Activation: NONE, Method: PREINCUBATION): inactive; negative | mutagenic call [1]: inactive; negative | mutagenic call [3]: inactive; negative | mutagenic call [2]: active; positive | mutagenic call (Test System: AMES SALMONELLA TYPHIMURIUM, Strain/Indicator: TA104, Metabolic Activation: NONE, Method: PREINCUBATION): active; positive | mutagenic call [4]: inactive; negative | mutagenic call [5]: inactive; negative | mutagenic call (Test System: CHINESE HAMSTER V-79, Strain/Indicator: V-79/6-THIOGUANINE, Metabolic Activation: NONE, Method: STANDARD PLATE): active; positive
